Measured values from DBAASP.
Converted amounts (≈) assume the structure as drawn. One block for each molecule: values may come before it.

How the values were obtained:
Assay in all cases: ≥ marks a high value that may be exact or a test limit, other limits are often not marked, values filed in µg/mL are converted to µM
[1] = system: Staphylococcus aureus ATCC 25923
Candida albicans = system: Candida albicans
Escherichia coli MG1655 = system: Escherichia coli MG1655
[2] = system: Pseudomonas aeruginosa PAO1
[3] = system: Pseudomonas aeruginosa ATCC 10145
[4] = system: Klebsiella pneumoniae ATCC 700603
Escherichia coli JW0013 = system: Escherichia coli JW0013
Bacillus cereus = system: Bacillus cereus
[5] = system: Staphylococcus epidermidis
Streptococcus uberis = system: Streptococcus uberis
[6] = system: Staphylococcus aureus ATCC 29213
Listeria innocua = system: Listeria innocua
Micrococcus luteus = system: Micrococcus luteus
Leuconostoc lactis = system: Leuconostoc lactis
[7] = system: Escherichia coli ATCC 25726

SMILES: CSCC[C@H](NC(=O)[C@@H](NC(=O)[C@@H](N)CCCCN)C(C)C)C(=O)N[C@@H](CCCN=C(N)N)C(=O)N[C@@H](CCC(=O)O)C(=O)N[C@H](C(=O)N[C@@H](CC(C)C)C(=O)NCC(=O)N[C@@H](Cc1ccc(O)cc1)C(=O)N[C@@H](CCC(=O)O)C(=O)N[C@@H](CCCN=C(N)N)C(=O)N[C@@H](CC(N)=O)C(=O)N[C@@H](CO)C(=O)N[C@@H](Cc1ccc(O)cc1)C(=O)N[C@@H](CCCCN)C(=O)N[C@@H](CCCCN)C(=O)N[C@@H](Cc1ccccc1)C(=O)N[C@@H](Cc1ccccc1)C(=O)N[C@@H](CC(C)C)C(=O)N[C@@H](CCCN=C(N)N)C(N)=O)C(C)C [KVMREVLGYERNSYKKFFLR]
MIC [1]: > 128 µM
MIC (Candida albicans): 128 µM (≈ 328 µg/mL)
MIC (Escherichia coli MG1655): ≥ 128 µM
MIC [2]: > 128 µM

SMILES: CC(C)C[C@H](NC(=O)[C@H](Cc1ccc(O)cc1)NC(=O)[C@H](Cc1cnc[nH]1)NC(=O)[C@H](CCCCN)NC(=O)[C@H](CC(C)C)NC(=O)[C@H](C)NC(=O)[C@H](CC(C)C)NC(=O)[C@H](CCCCN)NC(=O)CNC(=O)[C@@H](NC(=O)[C@@H](NC(=O)[C@H](CCCCN)NC(=O)[C@@H](NC(=O)[C@H](CCC(=O)O)NC(=O)[C@H](C)NC(=O)[C@H](CCCCN)NC(=O)[C@H](CCCCN)NC(=O)[C@H](CC(C)C)NC(=O)[C@H](CC(C)C)NC(=O)[C@@H](NC(=O)[C@H](CCCN=C(N)N)NC(=O)[C@H](Cc1c[nH]c2ccccc12)NC(=O)CN)[C@@H](C)O)C(C)C)[C@@H](C)O)C(C)C)C(=O)O [GWRTLLKKAEVKTVGKLALKHYL]
MIC [1]: 4.15 µM (≈ 11 µg/mL)
MIC (Escherichia coli MG1655): 8.3 µM (≈ 22 µg/mL)
MIC [3]: 0.25 µM (≈ 0.663 µg/mL)
MIC [4]: 4.15 µM (≈ 11 µg/mL)

SMILES: CC[C@H](C)[C@H](NC(=O)[C@H](CCCN=C(N)N)NC(=O)[C@H](CCCN=C(N)N)NC(=O)[C@@H]1CCCN1C(=O)[C@@H]1CCCN1C(=O)[C@H](CCCN=C(N)N)NC(=O)[C@@H]1CCCN1C(=O)[C@H](CCCN=C(N)N)NC(=O)[C@@H]1CCCN1C(=O)[C@H](CC(C)C)NC(=O)[C@H](Cc1ccc(O)cc1)NC(=O)[C@@H]1CCCN1C(=O)[C@@H]1CCCN1C(=O)[C@H](CCCCN)NC(=O)[C@H](CC(=O)O)NC(=O)[C@@H](N)CC(C)C)C(=O)N[C@@H](Cc1ccc(O)cc1)C(=O)N[C@@H](CC(N)=O)C(=O)N[C@@H](CCCN=C(N)N)C(N)=O [LDKPPYLPRPRPPRRIYNR]
MIC (Escherichia coli JW0013): 2 µM (≈ 4.8 µg/mL)

SMILES: CC[C@H](C)[C@H](NC(=O)CNC(=O)[C@H](Cc1ccccc1)NC(=O)[C@H](CC(C)C)NC(=O)CN)C(=O)N[C@@H](CC(C)C)C(=O)NCC(=O)N[C@@H](CO)C(=O)N[C@H](C(=O)N[C@@H](C)C(=O)N[C@@H](CCCCN)C(=O)N[C@@H](Cc1cnc[nH]1)C(=O)N[C@H](C(=O)N[C@@H](CC(C)C)C(=O)N1CCC[C@H]1C(=O)N[C@@H](Cc1cnc[nH]1)C(=O)N[C@H](C(=O)N[C@H](C(=O)N1CCC[C@H]1C(=O)N[C@H](C(=O)N[C@H](C(=O)N[C@@H](C)C(=O)N[C@@H](CCC(=O)O)C(=O)N[C@@H](Cc1cnc[nH]1)C(=O)N[C@@H](CC(C)C)C(N)=O)C(C)C)C(C)C)[C@@H](C)CC)C(C)C)C(C)C)C(C)C [GLFGILGSVAKHVLPHVIPVVAEHL]
MIC (Bacillus cereus): ≥ 38.4 µM
MIC [1]: 19.2 µM (≈ 50 µg/mL)
MIC [5]: 9.6 µM (≈ 25 µg/mL)
MIC (Streptococcus uberis): 19.2 µM (≈ 50 µg/mL)
MIC [6]: 9.6 µM (≈ 25 µg/mL)
MIC (Listeria innocua): 9.6 µM (≈ 25 µg/mL)
MIC (Micrococcus luteus): 7.68 µM (≈ 20 µg/mL)
MIC (Leuconostoc lactis): 9.6 µM (≈ 25 µg/mL)

SMILES: CC[C@H](C)[C@H](NC(=O)[C@@H]1CCCN1C(=O)[C@H](CCCN=C(N)N)NC(=O)[C@@H]1CCCN1C(=O)[C@@H]1CCCN1C(=O)[C@@H](NC(=O)[C@@H]1CCCN1C(=O)[C@H](CCCN=C(N)N)NC(=O)[C@@H]1CCCN1C(=O)[C@H](CCCCN)NC(=O)[C@H](Cc1ccc(O)cc1)NC(=O)[C@H](CO)NC(=O)CNC(=O)[C@H](CCCCN)NC(=O)[C@H](CC(=O)O)NC(=O)[C@@H](N)C(C)C)[C@@H](C)O)C(=O)N[C@@H](Cc1ccc(O)cc1)C(=O)N[C@@H](CC(N)=O)C(=O)N[C@@H](CCCN=C(N)N)C(=O)N[C@@H](CC(N)=O)C(=O)O [VDKGSYKPRPTPPRPIYNRN]
MIC (Escherichia coli JW0013): 0.3 µM (≈ 0.707 µg/mL)

SMILES: CC[C@H](C)[C@H](N)C(=O)N[C@H](C(=O)N[C@@H](CCC(=O)O)C(=O)N[C@@H](CCCCN)C(=O)N[C@@H](CC(C)C)C(=O)N[C@H](C(=O)N[C@@H](CC(N)=O)C(=O)N[C@H](C(=O)N[C@@H](C)C(=O)N[C@@H](CC(C)C)C(=O)NCC(=O)N[C@@H](CC(C)C)C(=O)N[C@@H](CC(C)C)C(=O)N[C@@H](CO)C(=O)NCC(=O)N[C@@H](CC(C)C)C(N)=O)[C@@H](C)O)C(C)C)[C@@H](C)CC [IIEKLVNTALGLLSGL]
MIC (Leuconostoc lactis): 25 µM (≈ 41.3 µg/mL)

SMILES: CC[C@H](C)[C@H](NC(=O)[C@H](C)NC(=O)CN)C(=O)N[C@@H](CCCCN)C(=O)N[C@@H](CC(=O)O)C(=O)N[C@@H](C)C(=O)N[C@@H](CC(C)C)C(=O)N[C@@H](CCCCN)C(=O)NCC(=O)N[C@@H](C)C(=O)N[C@@H](C)C(=O)N[C@@H](CCCCN)C(=O)N[C@H](C(=O)N[C@H](C(=O)N[C@@H](C)C(=O)N[C@H](C(=O)N[C@@H](CCC(=O)O)C(=O)N[C@@H](CC(C)C)C(=O)N[C@@H](CC(C)C)C(=O)N[C@@H](CCCCN)C(=O)N[C@@H](CCCCN)C(=O)N[C@@H](C)C(=O)N[C@@H](CCC(N)=O)C(=O)N[C@H]1CSSC[C@@H](C(=O)O)NC(=O)[C@H]([C@@H](C)O)NC(=O)[C@H](CCCCN)NC(=O)[C@H](CCC(=O)O)NC(=O)[C@H](CC(C)C)NC(=O)[C@H](CCCCN)NC1=O)C(C)C)C(C)C)[C@@H](C)O [GAIKDALKGAAKTVAVELLKKAQCKLEKTC]
MIC [1]: 20 µM (≈ 62.5 µg/mL)
MIC [7]: 20 µM (≈ 62.5 µg/mL)

Further lines, results first:

MIC (Escherichia coli JW0013): 2.04 µM (≈ 4.8 µg/mL)
SMILES: CC[C@H](C)[C@H](NC(=O)[C@H](CCCN=C(N)N)NC(=O)[C@H](CCCN=C(N)N)NC(=O)[C@@H]1CCCN1C(=O)[C@@H]1CCCN1C(=O)[C@H](CCCN=C(N)N)NC(=O)[C@@H]1CCCN1C(=O)[C@H](CCCN=C(N)N)NC(=O)[C@@H]1CCCN1C(=O)[C@H](CC(C)C)NC(=O)[C@H](Cc1ccc(O)cc1)NC(=O)CNC(=O)[C@@H]1CCCN1C(=O)[C@H](CCCCN)NC(=O)[C@H](CC(=O)O)NC(=O)[C@@H](N)C(C)C)C(=O)N[C@@H](Cc1ccc(O)cc1)C(=O)N[C@@H](CC(N)=O)C(=O)N[C@@H](CCCN=C(N)N)C(N)=O [VDKPGYLPRPRPPRRIYNR]

MIC (Escherichia coli JW0013): 1.97 µM (≈ 4.8 µg/mL)
SMILES: CC[C@H](C)[C@H](NC(=O)[C@H](CCCN=C(N)N)NC(=O)[C@H](CCCN=C(N)N)NC(=O)[C@@H]1CCCN1C(=O)[C@@H]1CCCN1C(=O)[C@H](CCCN=C(N)N)NC(=O)[C@@H]1CCCN1C(=O)[C@H](CCCN=C(N)N)NC(=O)[C@@H]1CCCN1C(=O)[C@H](CC(C)C)NC(=O)[C@H](Cc1ccc(O)cc1)NC(=O)[C@@H]1CCCN1C(=O)[C@@H]1CCCN1C(=O)[C@H](CCCCN)NC(=O)[C@H](Cc1ccc(O)cc1)NC(=O)[C@@H](N)C(C)C)C(=O)N[C@@H](Cc1ccc(O)cc1)C(=O)N[C@@H](CC(N)=O)C(=O)N[C@@H](CCCN=C(N)N)C(N)=O [VYKPPYLPRPRPPRRIYNR]

MIC (Escherichia coli JW0013): 1.95 µM (≈ 4.8 µg/mL)
SMILES: CC[C@H](C)[C@H](NC(=O)[C@H](CCCN=C(N)N)NC(=O)[C@H](CCCN=C(N)N)NC(=O)[C@@H]1CCCN1C(=O)[C@@H]1CCCN1C(=O)[C@H](CCCN=C(N)N)NC(=O)[C@@H]1CCCN1C(=O)[C@H](CCCN=C(N)N)NC(=O)[C@@H]1CCCN1C(=O)[C@H](CC(C)C)NC(=O)[C@H](Cc1ccc(O)cc1)NC(=O)[C@@H]1CCCN1C(=O)[C@@H]1CCCN1C(=O)[C@H](CCCCN)NC(=O)[C@H](Cc1c[nH]c2ccccc12)NC(=O)[C@@H](N)C(C)C)C(=O)N[C@@H](Cc1ccc(O)cc1)C(=O)N[C@@H](CC(N)=O)C(=O)N[C@@H](CCCN=C(N)N)C(N)=O [VWKPPYLPRPRPPRRIYNR]

MIC (Escherichia coli JW0013): 0.638 µM (≈ 1.6 µg/mL)
SMILES: CC[C@H](C)[C@H](NC(=O)[C@H](CCCN=C(N)N)NC(=O)[C@H](CCCN=C(N)N)NC(=O)[C@@H]1CCCN1C(=O)[C@@H]1CCCN1C(=O)[C@H](CCCN=C(N)N)NC(=O)[C@H](CCCN=C(N)N)NC(=O)[C@H](CCCN=C(N)N)NC(=O)[C@@H]1CCCN1C(=O)[C@H](CC(C)C)NC(=O)[C@H](Cc1ccc(O)cc1)NC(=O)[C@@H]1CCCN1C(=O)[C@H](CCCN=C(N)N)NC(=O)[C@H](CCCCN)NC(=O)[C@H](CC(=O)O)NC(=O)[C@@H](N)C(C)C)C(=O)N[C@@H](Cc1ccc(O)cc1)C(=O)N[C@@H](CC(N)=O)C(=O)N[C@@H](CCCN=C(N)N)C(N)=O [VDKRPYLPRRRPPRRIYNR]
